Source: patent US10093653B2, “Vitamin D receptor-coregulator inhibitors” (UWM Research Foundation, Inc., priority 2011, dated 2018)
Converted amounts (≈) assume the structure as drawn.

Legend:
[1] = 12 h, pH 7.4
[2] = PAMPA
[3] = test system: HEK293T cells; assay: Toxicity by Cell-Titer Glo after the FRET assay; assay type: cell-based; conditions: for Toxicity (%): Conc. 62.5 μM
[4] = test system: TRPV6 in DU145 cells; assay: TRPV6 expression, semi-quantitative RT-PCR; assay type: cell-based; conditions: 20 nM
[5] = test system: ECC-1; assay: Cytotoxicity, MTS assay; assay type: cell-based; conditions: ECC-1 endometrial cancer cell-line, within 48 hours
[6] = test system: SKOV-3; assay: Cytotoxicity, MTS assay; assay type: cell-based; conditions: SKOV-3, within 48 hours
[7] = test system: OVCAR-8; assay: Cytotoxicity, MTS assay; assay type: cell-based; conditions: OVCAR-8, within 48 hours
[8] = test system: SKOV-3 cells; assay: Western blots for phospho-p38 MAPkinase and phospho SAPK/JNK; assay type: cell-based; conditions: SKOV-3, 25 uM, within 24 hours
Description: Vitamin-d/VDR signaling protects the cancer cells from reactive oxygen species (ROS) induced cellular damages.

[9] = test system: VDR in SKOV-3 cells; assay: VDR expression, western blotting of whole cell lysate; assay type: cell-based; conditions: SKOV-3, 24 hours; 31b 25 and 50 uM, 32b 50 uM
Method: Expression of VDR was analyzed by western blotting of whole cell lysate using monoclonal antibody against VDR (Neomarker, Calif. cat no-RT-200PO).

[10] = test system: CYP24A1; assay: CYP24A1 expression levels; assay type: cell-based; conditions: compound in presence and absence of 1,25-(OH)2D3
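Throughout, for Permeability Log(Pe): passive permeability measured by parallel artificial membrane permeability assay, each experiment run in triplicate.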
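Throughout, for Permeability values (log Pe) of standards: passive permeability measured by parallel artificial membrane permeability assay, each experiment run in triplicate.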

Compound	Solubility [1] [µM]	Permeability Log(Pe) [2] [cm/s]	further results
Cc1[nH]c2ccccc2c1C(C)Nc1ccccc1 (stereo not drawn) [Compound 30g, N-(1-(2-methyl-1H-indol-3-yl)ethyl)aniline]	189.0 (≈ 47.3 µg/mL)	−6.40	–
Cc1[nH]c2ccccc2c1C(Nc1ccc(N(C)C)cc1)c1ccccc1Cl (stereo not drawn) [Compound 31e, N^1-((2-chlorophenyl)(2-methyl-1H-indol-3-yl)methyl)-N^4,N^4-dimethylbenzene-1,4-diamine]	21.0 (≈ 8.19 µg/mL)	−7.28	–
COc1ccccc1NC(c1ccccc1Cl)c1c(C)[nH]c2ccccc12 (stereo not drawn) [Compound 31h, N-((2-chlorophenyl)(2-methyl-1H-indol-3-yl)methyl)-2-methoxyaniline]	59.7 (≈ 22.5 µg/mL)	−6.22	–
Cc1[nH]c2ccccc2c1C(Nc1ccccn1)c1ccc(Br)cc1 (stereo not drawn) [Compound 15]	–	−6.01	–
CNC(=C[N+](=O)[O-])NCCSCc1ccc(CN(C)C)o1 [Ranitidine, reference compound]	–	–	Permeability values (log Pe) of standards [2]: −8.02±0.074 cm/s
Cc1ccc(NC(c2ccccc2Cl)c2c(C)[nH]c3ccccc23)cc1 (stereo not drawn) [Compound 31d, N-((2-chlorophenyl)(2-methyl-1H-indol-3-yl)methyl)-4-methylaniline]	35.9 (≈ 13 µg/mL)	−6.45	–
Cc1[nH]c2ccccc2c1C(Nc1ccc([N+](=O)[O-])cc1)c1ccccc1Cl (stereo not drawn) [Compound 31f, N-((2-chlorophenyl)(2-methyl-1H-indol-3-yl)methyl)-4-nitroaniline]	4.9 (≈ 1.92 µg/mL)	−7.60	–
Cc1[nH]c2ccccc2c1C(Nc1ccccc1)c1ccc(N(C)C)cc1 (stereo not drawn) [Compound 30e, N,N-dimethyl-4-((2-methyl-1H-indol-3-yl)(phenylamino)methyl)aniline]	157.7 (≈ 56.1 µg/mL)	−6.88	–
Cc1[nH]c2ccccc2c1C(Nc1ccccc1)c1ccccc1Cl (stereo not drawn) [Compound 31a, N-((2-chlorophenyl)(2-methyl-1H-indol-3-yl)methyl)aniline]	31.6 (≈ 11 µg/mL)	−6.41	–
COc1ccc(NC(c2ccccc2Cl)c2c(C)[nH]c3ccccc23)cc1 (stereo not drawn) [Compound 31c, N-((2-chlorophenyl)(2-methyl-1H-indol-3-yl)methyl)-4-methoxyaniline]	84.2 (≈ 31.7 µg/mL)	−6.30	–
NC(=O)N1c2ccccc2C=Cc2ccccc21 [carbamazepine, reference compound]	–	–	Permeability values (log Pe) of standards [2]: −6.81±0.0011 cm/s
Cc1[nH]c2ccccc2c1C(Nc1ccccn1)c1cccc(Cl)c1 (stereo not drawn) [Compound 18]	–	−6.01	Toxicity (%) [3]: 100%
Cc1[nH]c2ccccc2c1C(Nc1ccccn1)c1ccc(F)cc1 (stereo not drawn) [Compound 16]	–	−6.05	Toxicity (%) [3]: 100%
COc1ccc(C(Nc2ccccn2)c2c(C)[nH]c3ccccc23)cc1 (stereo not drawn) [Compound 11]	–	−6.25	Toxicity (%) [3]: 100%
C=C1/C(=C\C=C2/CCC[C@]3(C)[C@@H]([C@H](C)CCCC(C)(C)O)CC[C@@H]23)C[C@@H](O)C[C@@H]1O [1,25-(OH)2D3, 1,25-dihydroxyvitamin D3, reference compound]	–	–	TRPV6 expression with VDR ligand [4]: up-regulated
COc1ccc(C(Nc2ccccc2)c2c(C)[nH]c3ccccc23)cc1 (stereo not drawn) [Compound 30c, N-((4-methoxyphenyl)(2-methyl-1H-indol-3-yl)methyl)aniline]	237.5 (≈ 81.3 µg/mL)	−6.10	–
Cc1[nH]c2ccccc2c1C(Nc1ccccc1)c1ccc2ccccc2c1 (stereo not drawn) [Compound 30h, N-((2-methyl-1H-indol-3-yl)(naphthalen-2-yl)methyl)aniline]	67.3 (≈ 24.4 µg/mL)	−6.30	–
Cc1[nH]c2ccccc2c1C(Nc1ccccc1)c1ccccc1 (stereo not drawn) [Compound 30a, N-((2-methyl-1H-indol-3-yl)(phenyl)methyl)aniline]	252.9 (≈ 79 µg/mL)	−6.00	–
Cc1ccc(C(Nc2ccccc2)c2c(C)[nH]c3ccccc23)cc1 (stereo not drawn) [Compound 30d, N-((2-methyl-1H-indol-3-yl)(p-tolyl)methyl)aniline]	175.1 (≈ 57.2 µg/mL)	−6.34	–
Cc1[nH]c2ccccc2c1C(Nc1ccccn1)c1cccc(Br)c1 (stereo not drawn) [Compound 14]	–	−6.11	Toxicity (%) [3]: 100%
Cc1[nH]c2ccccc2c1C(Nc1ccccn1)c1ccc(C(C)C)cc1 (stereo not drawn) [Compound 17]	–	−6.12	Toxicity LD50 (given instead of percentages) ([3]; footnote b, highly active compounds): 18.0^b μM
Clc1ccccc1C(Nc1ccccc1)c1c[nH]c2ccccc12 (stereo not drawn) [Compound 32b, N-((2-chlorophenyl)(1H-indol-3-yl)methyl)aniline]	52.3 (≈ 17.4 µg/mL)	−6.51	Cytotoxicity, cell viability [5]: did not show any cytotoxicity; Cytotoxicity, cell viability [6]: did not show any cytotoxicity; Cytotoxicity, cell viability [7]: did not show any cytotoxicity; Activation of SAPK/JNK [8]: did not cause the similar activation; Activation of p38 MAPkinase [8]: did not cause the similar activation; Expression of VDR [9]: downregulation of VDR
Cc1[nH]c2ccccc2c1C(Sc1ccccc1)c1ccccc1Cl (stereo not drawn) [Compound 32c, 3-((2-chlorophenyl)(phenylthio)methyl)-2-methyl-1H-indole]	11.8 (≈ 4.29 µg/mL)	−6.89	–
Cn1cc(C(Nc2ccccc2)c2ccccc2Cl)c2ccccc21 (stereo not drawn) [Compound 32a, N-((2-chlorophenyl)(1-methyl-1H-indol-3-yl)methyl)aniline]	15.3 (≈ 5.31 µg/mL)	−6.58	–
Cc1[nH]c2ccccc2c1C(Nc1ccccn1)c1cccc(F)c1 (stereo not drawn) [Compound 19]	–	−5.99	–
COc1cccc(C(Nc2ccccn2)c2c(C)[nH]c3ccccc23)c1 (stereo not drawn) [Compound 13]	–	−6.12	Toxicity (%) [3]: 60%
c1ccc(NC(c2ccccc2)c2c[nH]c3ccccc23)cc1 (stereo not drawn) [Compound 1, N-((1H-indol-3-yl)(phenyl)methyl)aniline]	–	–	Modulation of CYP24A1 expression [10]: no modulation of CYP24A1
Cc1[nH]c2ccccc2c1C(Nc1ccccc1)c1ccc(Cl)cc1 (stereo not drawn) [Compound 30b, N-((4-chlorophenyl)(2-methyl-1H-indol-3-yl)methyl)aniline]	93.9 (≈ 32.6 µg/mL)	−6.03	–
Cc1[nH]c2ccccc2c1C(Nc1ccccc1)c1ccc([N+](=O)[O-])cc1 (stereo not drawn) [Compound 30f, N-((2-methyl-1H-indol-3-yl)(4-nitrophenyl)methyl)aniline]	117.6 (≈ 42 µg/mL)	−6.08	–
Cc1ccc(C(Nc2ccccn2)c2c(C)[nH]c3ccccc23)cc1 (stereo not drawn) [Compound 12]	–	−6.10	Toxicity (%) [3]: 90%
